{"source": "patent US20100104546A1", "about": "“MODULATORS OF ANTIGEN-DEPENDENT T CELL PROLIFERATION” (CHILDREN, YOUTH AND WOMEN'S HEALTH SERVICE, priority 2007, published 2010)", "key": {"splenocytes [1]": {"system": "splenocytes", "assay": "Ex-vivo antigen (SRBC)-dependent splenocyte proliferation after administration to SRBC-immunized mice (thymidine incorporation)", "type": "in vivo, Balb/c mice", "protocol": "Mice were immunized with SRBC for 5 days. β-oxa-21:3n-3 was delivered in DMSO and injected intraperitoneally at the indicated doses. After 2 h spleens were removed and single cell suspensions were prepared. The splenocytes were cultured for 3 days in the presence (□), or absence (▪) of SRBC. Thymidine incorporation for final 16 hours of culture was determined. The data is expressed as mean±SEM of 3 separate experiments each in triplicate.\nMice were immunized with SRBC for 5 days. Then β-oxa-21:3n-3 dissolved in syngeneic mouse serum and injected intraperitoneally (A), intravenously (B) or gavaged/orally (C) at the indicated concentrations. After 2 h spleens were removed, single cell suspensions prepared and the splenocytes cultured for 3 days in the presence (▪), or absence (□) of SRBC. Thymidine incorporation for final 16 hours of culture was determined. The data is presented as the mean±SEM of 3 separate experiments separate experiments, each in quintuplets.\nMice were immunized with SRBC. After 5 days they were given β-thia-21:3n-3 at the indicated doses i.p. After 2 hours the spleens were removed and processed into single cell suppressions. These were then cultured in the presence (□), or absence of (▪) of SRBC to assess the proliferation. The results are expressed as mean±SEM of 3 experiments. (B) Effect of β-oxa-21:3n-3 on tetanus toxoid (TT)-induced ex vivo lymphocyte responses. Mice were immunized with TT subcutaneously and after 7 days were given β-oxa-21:3n-3 in mouse serum, intraperitoneally. Two hours later the spleen removed, single cell suspension prepared and examined for lymphoproliferation responses to TT in 5 day cultures. The results are expressed as mean±SEM of 3 experiments.\n(§1) 6-7 weeks old Balb/c mice were injected subcutaneously with 100 μl of 10% sheep red blood cells (IMVS, Inc., Adelaide, Australia) After 5 days 100 ul of β-oxa-21:3n-3 at indicated amounts were injected intraperitoneally, intravenously or gavaged orally. In another experimental set up mice were given β-tha-21:3n-3 i.p. In a third approach mice were infected subcutaneously with 100 μl of Tetanus Toxoid (2,500 Lf/ml). Then 7 days later were given β-oxa-21:3n-3. At indicated time points mice were sacrificed and spleens were removed. Single cell suspensions were prepared and white blood cells (WBC) were enriched by passing through Ficoll-Paque Plus (GE Healthcare). Cells were washed with RPMI-1640 containing 10% fetal bovine serum, 10 mM Hepes, antibiotics and glutamine (RPMI-10) and counted using an automated Cell-Dyne 3500R (Abbott, Inc. MA) instrument. Cells were viable (>98%) as judged by trypan blue exclusion. (β-oxa-21:3n-3)- or vehicle-treated mouse samples (200,000/well) were mixed either with SRBC (600,000/well) with 100 μl of Tetanus toxoid (50 Lf/ml) or phytohaemaglutinin (PHA) (2 μg/ml) or with PHA plus phorbol myristate acetate (PMA) (10 ng/ml) or with PMA plus calcium ionophore A23187 ([…]). Cells were cultured in 96 well U bottom plates (Nunc, Inc. Denmark) for 3 days (except for TT −5 days) at 37° C. under humidified air containing 5% CO2. At some instances 50 μl of supernatants were transferred to a new plate and frozen immediately at −70° C. to be used for cytokine measurements. Thymidine (50 μl, 1 μCi/well) was added at final 16 hours of culture. Cells were harvested and thymidine incorporation was determined using a beta scintillation counter."}, "splenocytes [2]": {"system": "splenocytes", "assay": "Mitogen (PHA/PMA, PMA/A23187, PHA)-stimulated splenocyte adhesion and proliferation, ex vivo", "type": "in vivo, mice", "protocol": "(A) β-oxa-21:3n-3 or vehicle was injected intraperitoneally to 5 day SRBC-sensitized mice. After 2 h splenocytes (1×10^6 cells) were cultured in a 24 well tissue culture plate (Nunc, Inc. […] Cells were fixed with 2% Para formaldehyde and inspected under a light microscopy and photographed. (B) β-oxa-21:3n-3 or vehicle was injected intraperitoneally or intravenously to 5 day SRBC-sensitized mice. After 2 h splenocytes (0.2 million) were cultured in a 96 well tissue culture plate (Nunc, Inc. Denmark) in the presence of PHA and PMA (PHA/PMA) or PMA (10 ng/ml) and A23187 ([…]) (PMA/A23187) for 3 days. Thymidine incorporation for final 16 hours of culture was determined. The data represents the mean±SEM of 3 separate experiments each conducted in quintuplets.\nas §1\nTo assess whether or not the immunosuppression observed was restricted to antigen-dependent stimulation, we explored the effect of β-oxa-21:3n-3 on mitogen-induced splenocyte adhesion and proliferation. […] The cells were cultured for 3 days and the extent of proliferation was assessed by thymidine incorporation."}, "human lymphocytes": {"system": "human lymphocytes", "assay": "Human lymphocyte proliferation assay, mitogen (PHA)-induced", "type": "cell-based", "conditions": "PHA-stimulated human lymphocytes, in vitro; read-out: IC50 for the PHA-stimulated response"}, "Th1 and Th2 cytokines": {"system": "Th1 and Th2 cytokines", "assay": "Cytokine levels of mitogen-stimulated splenocytes, ex vivo", "type": "in vivo, mice", "conditions": "3 days", "protocol": "Mice were sensitized with SRBC and after 5 days were injected with β-oxa-21:3n-3 or vehicle intraperitoneally. After 2 h spleens were removed, cell suspensions prepared and incubated in the presence of mitogens PHA/PMA or PMA/A23187. After 3 days of incubation, the culture fluids and were harvested and used to determine the levels of Th1 and Th2 cytokines. Baseline subtracted levels of cytokines plotted in the presence of vehicle or β-oxa-21:3n-3. The values represent the mean±SEM separate experiments each conducted in quintuplets.\nas §1\nTo determine whether or not these effects were due to non-specific suppression of the immune system, we examined the production of Th1 and Th2 cytokines in mitogen-activated mononuclear leukocytes. Splenocytes from (β-oxa-21:3n-3)- or vehicle-administered pre-immune animals were cultured for 3 days in the presence of PHA-PMA or PMA-A23187. The cell culture fluids were collected and cytokines measured."}, "spleen cells": {"system": "spleen cells", "assay": "Viability and composition of splenic cells by microscopy and flow cytometry", "type": "in vivo, mice", "protocol": "Data acquisition was performed using a BD Immunocytometry Systems four-color FACScalibur (Mountain View, Calif.), and the acquired data were analyzed using FloJo software (Tree Star Inc., Palo Alto, Calif.).\nTo exclude that this effect of β-oxa-21:3n-3 was not due to necrosis or apoptosis of the splenic cells, we examined the viability and composition of live splenic cells from animals treated with this fatty acid, by microscopy and flow cytometry."}, "[3]": {"system": "circulating cytokine levels", "assay": "Circulating cytokine levels in SRBC-sensitized mice after intravenous SRBC challenge", "type": "in vivo", "conditions": "serum, 80 mg/kg IP, 6 h after IV SRBC; ELISA"}, "[4]": {"conditions": "IP- or IV-administered, 3 days culture, thymidine incorporation"}}}
{"smiles": "CC/C=C\\C/C=C\\C/C=C\\CCCCCCCCOCC(=O)O", "note": "[β-oxa-21:3n-3]", "values": [{"measurement": "inhibition of splenocyte proliferation, duration of effect", "setting": "splenocytes [1]; ex-vivo SRBC challenge 1, 2 and 6 days after single administration (80 mg/kg IP)", "result": "significant inhibition"}, {"measurement": "antigen-dependent splenocyte proliferation", "setting": "splenocytes [1]; intravenous, in syngeneic mouse serum, compared with IP", "result": "even more pronounced"}, {"measurement": "antigen-dependent proliferation of splenocytes", "setting": "splenocytes [1]; orally administered (gavage), in mouse serum", "result": "significantly depressed"}, {"measurement": "antigen-dependent proliferation of splenic lymphocytes, ex-vivo", "setting": "splenocytes [1]; single IP injection in 7% DMSO, 2 h, SRBC pre-sensitized mice", "result": "dose-dependent inhibition"}, {"measurement": "splenocyte proliferation in response to PHA-PMA", "setting": "splenocytes [2]; [4]", "result": "not affected in their responsiveness"}, {"measurement": "splenocyte proliferation in response to PMA-A23187", "setting": "splenocytes [2]; [4]", "result": "not affected in their responsiveness"}, {"measurement": "splenocyte adherence", "setting": "splenocytes [2]; PHA and PMA stimulation for 4 h, SRBC pre-sensitized mice", "result": "not affected"}, {"measurement": "splenocyte proliferation in response to PHA alone", "setting": "splenocytes [2]; not shown", "result": "did not affect"}, {"measurement": "IC50", "setting": "human lymphocytes", "result": 30, "unit": "µM"}, {"measurement": "IL-2 secretion", "setting": "Th1 and Th2 cytokines; PHA-PMA-stimulated splenocytes", "result": "higher levels"}, {"measurement": "levels of IL-4, IL-5, TNFα and IFNγ", "setting": "Th1 and Th2 cytokines; PHA-PMA-stimulated splenocytes", "result": "no substantial increase"}, {"measurement": "IFNγ secretion", "setting": "Th1 and Th2 cytokines; PMA-A23187-stimulated splenocytes", "result": "reduction"}, {"measurement": "cytokine secretion", "setting": "Th1 and Th2 cytokines; PMA-A23187-stimulated splenocytes, apart from IFNγ", "result": "did not result in any substantial differences"}, {"measurement": "viable cells (excluded propidium iodide)", "setting": "spleen cells; spleen cells from treated SRBC-sensitized mice", "result": "> 95", "unit": "%"}, {"measurement": "viable cell numbers versus vehicle-treated mice", "setting": "spleen cells; spleen cells, SRBC-sensitized mice", "result": "no major difference"}, {"measurement": "TGFβ conc", "setting": "[3]", "result": "(52 ± 6) × 10^3 pg/ml"}]}
